Laboratory results: ChEMBL document CHEMBL3507680, “University of Dundee, Gates Library screen for HepG2 cell viability”

Test: Human HepG2 cell viability assay in 384 well format
Assay type: toxicity, cell-based
Parameters: dose 125 nL, time 70.5 hour; cytotoxicity at 70.5 h: concentration not given beside the values
Conditions: HepG2 cells, read-out: Inhibition

SMILES	cytotoxicity at 70.5 h [%]
CN(C)CCN1CCO[C@H]2CCN(C(=O)c3cccs3)CC[C@@H]21	32.1
CN1CCCC(c2cccc(-c3cccc(F)c3)n2)C1 (stereo not given)	-5.53
CCN(Cc1cnn(C)c1)C[C@H]1CC[C@@H](Cc2ccc(OC)nc2)O1	-8.42
CCn1ncnc1C(C)Nc1cc(C2CC2)ncn1 (stereo not given)	-13
CN1CC=C(c2noc(CCC(=O)N3CCc4ccccc4C3)n2)CC1	-15
CC(=O)NCCNC(=O)C1(Oc2cccnc2C)CCNCC1	-5.79
COc1ccc(-c2ccc(C3CNCCO3)nc2)cc1 (stereo not given)	-5.61
CC(C)(C)OC(=O)NCCC(=O)N(CCC#N)Cc1ccco1	-0.853
Cc1nn(C)c(Cl)c1C1CCCN1C(=O)c1cnn(C)c1C1CC1 (stereo not given)	-14.5
O=C(C1CCOCC1)N1CC[C@@H](N2CCOCC2)[C@@H]1Cc1ccccc1	5.57
CC(=O)N(Cc1ncc(C)o1)C1CCN(CCc2cnn(C)c2)C1 (stereo not given)	-11.2
C[C@@H]1CN(Cc2cc(C3CCCCC3)no2)CC[C@]1(C)O	-6.92
CCc1cc(N(C)Cc2ncc[nH]2)nc(N2CCOCC2)n1	-15.9
O=C(CN1CCC(c2ccnn2CCO)CC1)NCC1CCCCC1	-3.43
CCN(CC)c1ncccc1CNC(=O)c1cnn(CC)c1	-3.9
CC(Nc1nc2c(cnn2C)c(=O)[nH]1)c1ccccn1 (stereo not given)	13
COc1cccc(CCC2CCCN(C(=O)c3ccc(OC)o3)C2)c1 (stereo not given)	-3.25
Cc1nc(O)cc(C2CCCN2CCO)n1 (stereo not given)	-5.13
CCNC(=O)NC1CCC(Oc2ccccc2C#N)CC1 (stereo not given)	9.88
O=C(NCc1cncc2c1CCN(Cc1cccs1)C2)C1CC1	-13.8
Cn1cnc2c1CCN(CCCOc1ccc(C#N)cc1)C2	-10.6
Cn1ccc(C(=O)NC2CCC23CCN(C(=O)c2cnccn2)CC3)c1 (stereo not given)	-7.61
Cc1ccc2c(-c3nc4c([nH]3)CCNC4C(=O)O)cccc2n1 (stereo not given)	-0.899

SMILES	cytotoxicity at 70.5 h [%]
Cc1c(C(=O)O)sc2nc(Cc3ccccc3)nc(N)c12	-3.73
Cc1csc(N2CCCN(C(=O)C3(C#N)CCCCC3)CC2)n1	-9.35
O=C(CO)N1CCC2(CC1)CC(=O)N(Cc1cc(F)cc(F)c1)C2	-1.76
Cn1ccc(N2CCCC(NC(=O)c3ccsc3)C2=O)n1 (stereo not given)	20.9
OC(CN1CCN(Cc2nc(C3CC3)no2)CC1)c1ccccc1 (stereo not given)	2
Cc1ccsc1C(=O)NCc1cccnc1N(C)CCc1ccccn1	-7.98
Cc1ccc(O)c(CNCC2CCCN2c2cccnn2)n1 (stereo not given)	-11.5
Cc1nnsc1C(=O)NCc1cccnc1N(C)Cc1ccccc1	-7.67
CCc1cnc(NCC(c2cccnc2)N2CCOCC2)nc1 (stereo not given)	-1.2
CC(C)CC(c1nc(-c2cnn(C)c2)no1)N1CCCCC1=O (stereo not given)	-3.04
CCN(CC)C(=O)CSc1nc2cc(C)nc-2c(O)n1Cc1ccco1	-10.9
Cn1cc(CCNCC2CNc3ccnn3C2)cn1 (stereo not given)	1.67
O=C(c1c[nH]cn1)N1CCCn2c(CN3CCCCC3)nnc2C1	-1.43
Cc1cc(C(C)(O)CNC(=O)CCn2ccnc2C(C)C)c(C)o1 (stereo not given)	9.42
CC(C)n1cnnc1CN(C)C(=O)c1cnn2ccccc12	4.09
Cc1ccc(C(=O)N(C)S(C)(=O)=O)cc1Cl	-1.55
CN(C)Cc1cc(=O)n2c(n1)CN(CC1CC1)CCC2	-6.12
Cc1ccc(NC2CCN(C(=O)COC3CCCC3)CC2)nn1	-8.07
O=C(CCSc1ccccc1F)NS(=O)(=O)c1ccc2c(c1)OCCO2	-4.85
CC(C)n1ccnc1C1CCCN(c2ccncc2F)C1 (stereo not given)	-5.94
CSCc1cccc(S(=O)(=O)N2CCSCC2)c1	-4.49
COCCNC(=O)c1ccc(C)c(-n2cccc2)c1	-2.8
CCc1cnc(N)nc1NCc1ccc(OC)c(OC)c1	-1.08

SMILES	cytotoxicity at 70.5 h [%]
c1ccc(-c2cnc3n2CCNC32CCNCC2)cc1	43.5
CSCC(=O)NS(=O)(=O)c1ccc(C#N)c(C(F)(F)F)c1	-8.4
NC(=O)c1cc(C2CCCN(CCCOc3ccc(F)cc3)C2)n[nH]1 (stereo not given)	4.69
O=C(CCN1CCCC1=O)Nc1cnn(-c2ccccc2Cl)c1	-8.1
Cc1ccc(CC2COc3ccccc3C2)c(N)n1 (stereo not given)	16.3
COCCN1CCC2(CCC1=O)CN(c1ccnc(SC)n1)CCN2C (stereo not given)	-4.09
CC(O)CN1CCN(Cc2csc(-c3ncccn3)n2)CC1 (stereo not given)	5.33
CCN1CCc2c(CNC(=O)c3nccn3C)cncc2C1	-10.7
CC1CN(S(=O)(=O)c2ccc(C(=O)NCC(F)F)cc2)CCCO1 (stereo not given)	-0.0719
O=C(O)Cc1cn2cc(C(F)(F)F)ccc2n1	-10.8
CN(C)Cc1ccc(C(=O)N2CCCC(COc3ccc(F)cc3)C2)o1 (stereo not given)	-5.29
Cc1noc([C@]23COC[C@H]2CN(C(=O)CN(C)C)C3)n1	-4.74
CC(=O)NC1CCN(c2nc(C)nc3c2c(C)nn3C)C1 (stereo not given)	20.8
Cc1nn(C)c(C)c1CCC(=O)N1CCCC1Cn1cccn1 (stereo not given)	-2.38
CCOc1ccc(CC(CNC(=O)c2ccc(C)o2)C(N)=O)cc1 (stereo not given)	-10.7
COc1cccc(CNC(=O)c2cccnc2SC(C)C)c1	-5.9
CC(C)Nc1cccc(CNC(=O)N2CCC[C@@H]2CO)c1	-2.37
Cc1noc(C)c1CNC(=O)Nc1ccc(N2CCSCC2)cc1	-9.93
O=C1CCC(C(=O)NCCOc2ccccc2-c2ccccc2)CN1 (stereo not given)	-13.3
Cc1cc2occ(CC(=O)N3CCC4(CCCN(C)C4=O)C3)c2cc1Cl (stereo not given)	-8.33
Cc1oc(-c2ccsc2)nc1CC(=O)NCCCS(C)(=O)=O	15.4
CO[C@H]1CCN(Cc2ccoc2)C[C@@H]1Cc1ccccc1	20.5
CCCC1CCCN(C(=O)Nc2ccc(F)c(C(N)=O)c2)CC1 (stereo not given)	-1.9

SMILES	cytotoxicity at 70.5 h [%]
O=C(NCCNc1ncccn1)C1CCN(C(=O)NC2CC2)CC1	-4.22
CN(C(=O)CNC(=O)CC(C)(C)C)C1CCN(c2ccccn2)CC1	-6.78
Cc1ncccc1C(=O)N1CCC2(CCc3ccccc3C(=O)N2)C1 (stereo not given)	15.5
O=C(c1ccc[nH]1)N1CCC2(CC1)C(=O)Nc1ccccc12	-14.9
COc1cccc2sc(N(C)CC(=O)NCc3nc(C)no3)nc12	-3.58
Cc1nn(-c2cc(Cl)cc(Cl)c2)c(C)c1CCC(=O)O	-5.45
CC(C)c1ccc(OCC(=O)NS(=O)(=O)c2cccnc2)cc1	-0.457
Cc1ccc(S(=O)(=O)N2C[C@H]3C[C@H](NC(=O)c4ccccn4)[C@H]3C2)cc1	56.3
Cn1ccnc1CN1C(=O)CO[C@H]2CN(Cc3ccccc3O)C[C@H]21	-1.59
Cc1nn(C)c(C)c1CN(C)CC1(O)CCCN(C)C1 (stereo not given)	-19.1
COc1ccc(C(CO)NC(=O)Nc2cccnc2)cc1 (stereo not given)	12.6
O=C(c1cnn[nH]1)N1CCCC1c1nc2cc(F)ccc2[nH]1 (stereo not given)	-12.1
O=S1(=O)CCN(Cc2cccnc2)[C@H]2CCN(c3ncccn3)CC[C@H]21	19.6
CNS(=O)(=O)c1cccc(C(C)NCc2ccc(F)c(F)c2)c1 (stereo not given)	-6.64
CC(C)OCCN1CCN(c2ccc(CN(C)C)cn2)CC1	8.47
C1CCN(CCOC2CCNCC2)CC1	19.9
Cc1nnc(C2CCN(c3ccc(F)cc3)CC2)o1	-9.58
Fc1ccc(C2(c3noc(CCN4CCCCO4)n3)CCOC2)cc1 (stereo not given)	-11.7
Cc1ccccc1CC(=O)N1CCCn2cncc2C1	-9.13
CC(=O)N1CCC(NC(=O)NCc2ncc(-c3ccccc3)o2)CC1	-3.53
OC1(CNc2ccc(F)cc2)CCNCC1	-7.97
CC(=O)N1CCOC2(CCN(C(=O)c3cnoc3C)CC2)C1	2.68
CCCS(=O)(=O)N1CCC2(CC1)CN(C(=O)N(C)C)c1ccccc12	-10.2

SMILES	cytotoxicity at 70.5 h [%]
COc1ccccc1CC(=O)N1CCCC(c2cc(C)[nH]n2)C1 (stereo not given)	3.02
COc1ccc(CN2Cc3cnn(C)c3C(COCC3CC3)C2)cc1 (stereo not given)	-1.5
Cn1ccnc1C(=O)N1CCC2(CCCN2CC2CC2)CC1	-7.19
CC(C)c1nc2n(n1)CC(NCc1nc(C3CC3)no1)CC2 (stereo not given)	-1.86
CNc1ncc2c(n1)CN(C1CC(C)(C)NC(C)(C)C1)C2=O	-12.6
Cc1nncn1CCN1C(=O)CC2(CCCC2)CC1=O	-7.54
O=C1[C@H]2CN(C3CCOC3)C[C@H]2CN1c1ccccc1 (stereo not given in full)	-1.16
COCCN(C)C[C@@H]1CN(C(=O)c2cccc(C(F)(F)F)c2)C[C@@H]1CO	-9.39
CCCC(=O)N(C)Cc1cccc(OC(C)C)c1	9.69
CC(C)c1nsc(N2CCn3c(nnc3C(F)(F)F)C2)n1	4.03
CN(C(=O)c1ccc[nH]1)C1CCC(NC(=O)OC(C)(C)C)CC1 (stereo not given)	-17.5
O=c1cc(Cn2ccnc2)nc2n1CCCN(Cc1ccsc1)C2	-19.5
CNC(=O)CN(C(=O)c1ccccc1)[C@H]1C[C@H]2CCOC[C@H]2C1	-1.15
O=C(CN1CCOC(CNc2cccnn2)C1)N1CCCCC1 (stereo not given)	-6.36
O=c1n(CCNCc2ccc(-c3ccccc3)cc2)nc2ccccn12	-8.68
CCc1cnc(CN(C)C2CCN(CCCNS(C)(=O)=O)C2)o1 (stereo not given)	-2.35
CC(=O)N(C)C(c1cccnc1)c1ccc(F)c(F)c1 (stereo not given)	23.1
N#Cc1nc(COc2ccc3c(c2)OCO3)oc1N1CCCCCC1	-21.8
O=C(c1ccc[nH]1)N1Cc2nccn2CC(COc2cccnc2)C1 (stereo not given)	18.1
Cc1cc(NC(=O)CCn2nc(C)c3ccccc32)n(C)n1	-1.96
Cc1cc2cc(Nc3c(C#N)c(=O)n(C)c(=O)n3C)ccc2[nH]1	-5.45
CC(=O)N1CCC(N2CCOC[C@H]2c2nc(-c3ccc(Cl)s3)c[nH]2)CC1	-2.53
COc1ccccc1C1(CNCc2cccc(C#N)c2)CCOCC1	-9.16
